According to US20240025884A1 (Dong-A ST Co., Ltd., priority 2022, published 2024):

Each compound was assayed against GCN2 (Homo sapiens (Human), UniProt Q9P2K8) (assay: GCN2 Biochemical Assay (TR-FRET, GFP-eIF2S1 substrate phosphorylation)). Details: read-out: IC50 (GCN2 Inhibitory Activity).
Procedure, shortened: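 TR-FRET readout (Ex 340, Em 490/520 nm) after 2–3 h with Tb-labelled phospho-eIF2S1 antibody in stop mix, following a 70 min room-temperature kinase step. Reaction: in-house GCN2, GFP-eIF2S1, ATP, tRNA in Tris pH 7.5 (2× stocks 1.6 nM, 50 nM, 0.2 mM); compounds tested at 10 concentrations, with a phospho-substrate artifact counter-plate.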

GCN2, sequence (Q9P2K8 whole entry): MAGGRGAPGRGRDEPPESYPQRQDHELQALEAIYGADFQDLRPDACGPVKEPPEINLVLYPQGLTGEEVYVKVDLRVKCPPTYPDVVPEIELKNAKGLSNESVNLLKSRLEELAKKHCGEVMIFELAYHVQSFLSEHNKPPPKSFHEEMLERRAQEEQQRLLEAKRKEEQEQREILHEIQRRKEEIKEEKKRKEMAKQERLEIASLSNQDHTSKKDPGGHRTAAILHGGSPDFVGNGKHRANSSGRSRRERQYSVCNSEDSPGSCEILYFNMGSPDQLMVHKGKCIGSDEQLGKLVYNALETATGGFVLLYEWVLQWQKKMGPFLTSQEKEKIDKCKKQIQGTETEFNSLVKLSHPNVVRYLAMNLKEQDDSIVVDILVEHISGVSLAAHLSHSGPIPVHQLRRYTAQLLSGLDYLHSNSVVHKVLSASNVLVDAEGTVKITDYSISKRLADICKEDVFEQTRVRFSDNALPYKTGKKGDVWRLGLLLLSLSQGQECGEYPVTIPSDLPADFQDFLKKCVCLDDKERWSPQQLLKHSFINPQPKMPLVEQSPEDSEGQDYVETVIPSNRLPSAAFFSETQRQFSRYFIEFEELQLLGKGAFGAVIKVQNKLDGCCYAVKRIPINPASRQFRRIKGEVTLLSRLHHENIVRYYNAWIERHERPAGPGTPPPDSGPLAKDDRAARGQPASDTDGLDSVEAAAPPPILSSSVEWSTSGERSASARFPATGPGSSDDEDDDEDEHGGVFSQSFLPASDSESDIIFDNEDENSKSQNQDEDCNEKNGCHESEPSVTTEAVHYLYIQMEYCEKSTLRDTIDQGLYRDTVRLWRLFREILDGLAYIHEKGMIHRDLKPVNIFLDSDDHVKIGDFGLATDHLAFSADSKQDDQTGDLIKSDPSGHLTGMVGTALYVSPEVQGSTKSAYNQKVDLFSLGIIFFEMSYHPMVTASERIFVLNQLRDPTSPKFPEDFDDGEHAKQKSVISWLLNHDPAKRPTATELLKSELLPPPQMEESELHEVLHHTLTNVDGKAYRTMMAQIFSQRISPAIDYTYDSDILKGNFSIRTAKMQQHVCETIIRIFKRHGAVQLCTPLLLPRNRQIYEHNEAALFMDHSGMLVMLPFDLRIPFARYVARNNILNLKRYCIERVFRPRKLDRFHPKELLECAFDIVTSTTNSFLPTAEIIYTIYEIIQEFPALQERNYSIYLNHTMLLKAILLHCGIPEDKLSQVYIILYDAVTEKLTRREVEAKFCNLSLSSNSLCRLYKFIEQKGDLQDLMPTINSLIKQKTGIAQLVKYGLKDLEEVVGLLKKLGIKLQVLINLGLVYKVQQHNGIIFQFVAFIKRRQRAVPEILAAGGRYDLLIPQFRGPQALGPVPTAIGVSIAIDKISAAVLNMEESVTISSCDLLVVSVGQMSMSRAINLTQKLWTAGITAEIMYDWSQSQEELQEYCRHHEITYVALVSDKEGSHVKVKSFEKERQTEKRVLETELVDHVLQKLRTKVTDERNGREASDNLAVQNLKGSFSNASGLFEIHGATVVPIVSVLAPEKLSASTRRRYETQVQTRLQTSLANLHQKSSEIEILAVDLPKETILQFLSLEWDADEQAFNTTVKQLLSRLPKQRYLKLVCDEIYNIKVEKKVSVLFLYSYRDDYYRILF

`Cc1cnc(Nc2cc(C)n(C)n2)nc1-c1c[nH]c2c(N3Cc4c(/C=C/C(=O)NC5CC5)cccc4C3=O)cccc12` [Example 365, (E)-N-cyclopropyl-3-(2-(3-(2-((1,5-dimethyl-1H-pyrazol-3-yl)amino)-5-methylpyrimidin-4-yl)-1H-indol-7-yl)-1-oxoisoindolin-4-yl)acrylamide] and `Cc1cnc(Nc2cc(C)n(C)n2)nc1-c1c[nH]c2c(N3Cc4c(/C=C/C(=O)NN)cccc4C3=O)cccc12` [Example 366, (E)-3-(2-(3-(2-((1,5-dimethyl-1H-pyrazol-3-yl)amino)-5-methylpyrimidin-4-yl)-1H-indol-7-yl)-1-oxoisoindolin-4-yl)acrylohydrazide] cannot be ordered by IC50: less than 10 nM for the first, less than 10 nM for the second.

`Cc1cnc(Nc2cc(C)n(C)n2)nc1-c1c[nH]c2c(N3Cc4c(/C=C/C(=O)O)cccc4C3=O)cccc12` [Example 367, (E)-3-(2-(3-(2-((1,5-dimethyl-1H-pyrazol-3-yl)amino)-5-methylpyrimidin-4-yl)-1H-indol-7-yl)-1-oxoisoindolin-4-yl)acrylic acid] and `Cc1cnc(Nc2cc(C)n(C)n2)nc1-c1c[nH]c2c(N3Cc4c(/C=C/CO)cccc4C3=O)cccc12` [Example 375, (E)-2-(3-(2-((1,5-dimethyl-1H-pyrazol-3-yl)amino)-5-methylpyrimidin-4-yl)-1H-indol-7-yl)-4-(3-hydroxyprop-1-en-1-yl)isoindolin-1-one] cannot be ordered by IC50: less than 10 nM for the first, less than 10 nM for the second.

First: CCN(CC)C(=O)/C=C/c1cccc2c1CN(c1cccc3c(-c4nc(Nc5cc(C)n(C)n5)ncc4C)c[nH]c13)C2=O [Example 368, (E)-3-(2-(3-(2-((1,5-dimethyl-1H-pyrazol-3-yl)amino)-5-methylpyrimidin-4-yl)-1H-indol-7-yl)-1-oxoisoindolin-4-yl)-N,N-diethylacrylamide]
Second: CCCCN(CCCC)C(=O)/C=C/c1cccc2c1CN(c1cccc3c(-c4nc(Nc5cc(C)n(C)n5)ncc4C)c[nH]c13)C2=O [Example 369, (E)-N,N-dibutyl-3-(2-(3-(2-((1,5-dimethyl-1H-pyrazol-3-yl)amino)-5-methylpyrimidin-4-yl)-1H-indol-7-yl)-1-oxoisoindolin-4-yl)acrylamide]
The IC50 of the first is lower: less than 10 nM for the first, 10 to 100 nM for the second.

`Cc1cnc(Nc2cc(C)n(C)n2)nc1-c1c[nH]c2c(N3Cc4c(/C=C/C(=O)NC(C)(C)C)cccc4C3=O)cccc12` [Example 371, (E)-N-(tert-butyl)-3-(2-(3-(2-((1,5-dimethyl-1H-pyrazol-3-yl)amino)-5-methylpyrimidin-4-yl)-1H-indol-7-yl)-1-oxoisoindolin-4-yl)acrylamide] and `CCCNC(=O)/C=C/c1cccc2c1CN(c1cccc3c(-c4nc(Nc5cc(C)n(C)n5)ncc4C)c[nH]c13)C2=O` [Example 373, (E)-3-(2-(3-(2-((1,5-dimethyl-1H-pyrazol-3-yl)amino)-5-methylpyrimidin-4-yl)-1H-indol-7-yl)-1-oxoisoindolin-4-yl)-N-propylacrylamide] cannot be ordered by IC50: less than 10 nM for the first, less than 10 nM for the second.

`Cc1cnc(Nc2cc(C)n(C)n2)nc1-c1c[nH]c2c(N3Cc4c(/C=C/C(=O)NCCO)cccc4C3=O)cccc12` [Example 372, (E)-3-(2-(3-(2-((1,5-dimethyl-1H-pyrazol-3-yl)amino)-5-methylpyrimidin-4-yl)-1H-indol-7-yl)-1-oxoisoindolin-4-yl)-N-(2-hydroxyethyl)acrylamide] and `COCCNC(=O)/C=C/c1cccc2c1CN(c1cccc3c(-c4nc(Nc5cc(C)n(C)n5)ncc4C)c[nH]c13)C2=O` [Example 374, (E)-3-(2-(3-(2-((1,5-dimethyl-1H-pyrazol-3-yl)amino)-5-methylpyrimidin-4-yl)-1H-indol-7-yl)-1-oxoisoindolin-4-yl)-N-(2-methoxyethyl)acrylamide] cannot be ordered by IC50: less than 10 nM for the first, less than 10 nM for the second.

`CCNC(=O)/C(C)=C/c1cccc2c1CN(c1cccc3c(-c4nc(Nc5cc(C)n(C)n5)ncc4C)c[nH]c13)C2=O` [Example 376, (E)-3-(2-(3-(2-((1,5-dimethyl-1H-pyrazol-3-yl)amino)-5-methylpyrimidin-4-yl)-1H-indol-7-yl)-1-oxoisoindolin-4-yl)-N-ethyl-2-methylacrylamide] and `Cc1cnc(Nc2cc(C)n(C)n2)nc1-c1c[nH]c2c(N3Cc4c(cccc4-c4ccccc4)C3=O)cccc12` [Example 377, 2-(3-(2-((1,5-dimethyl-1H-pyrazol-3-yl)amino)-5-methylpyrimidin-4-yl)-1H-indol-7-yl)-4-phenylisoindolin-1-one] cannot be ordered by IC50: less than 10 nM for the first, less than 10 nM for the second.

First: Cc1cnc(Nc2cc(C)n(C)n2)nc1-c1c[nH]c2c(N3Cc4cc(-c5ccccc5)ccc4C3=O)cccc12 [Example 378, 2-(3-(2-((1,5-dimethyl-1H-pyrazol-3-yl)amino)-5-methylpyrimidin-4-yl)-1H-indol-7-yl)-5-phenylisoindolin-1-one]
Second: Cc1cnc(Nc2cc(C)n(C)n2)nc1-c1c[nH]c2c(N3Cc4ccc(-c5ccccc5)cc4C3=O)cccc12 [Example 379, 2-(3-(2-((1,5-dimethyl-1H-pyrazol-3-yl)amino)-5-methylpyrimidin-4-yl)-1H-indol-7-yl)-6-phenylisoindolin-1-one]
The IC50 of the first is higher: greater than 1000 nM for the first, 100 to 1000 nM for the second. The second is the more potent here.

`Cc1cnc(Nc2cc(C)n(C)n2)nc1-c1c[nH]c2c(N3Cc4ccc(-c5ccncc5)cc4C3=O)cccc12` [Example 380, 2-(3-(2-((1,5-dimethyl-1H-pyrazol-3-yl)amino)-5-methylpyrimidin-4-yl)-1H-indol-7-yl)-6-(pyridin-4-yl)isoindolin-1-one] and `Cc1cnc(Nc2cc(C)n(C)n2)nc1-c1c[nH]c2c(N3Cc4cccc(-c5ccncc5)c4C3=O)cccc12` [Example 383, 2-(3-(2-((1,5-dimethyl-1H-pyrazol-3-yl)amino)-5-methylpyrimidin-4-yl)-1H-indol-7-yl)-7-(pyridin-4-yl)isoindolin-1-one] cannot be ordered by IC50: less than 10 nM for the first, less than 10 nM for the second.

First: Cc1cnc(Nc2cc(C)n(C)n2)nc1-c1c[nH]c2c(N3Cc4ccc(C5=CCNCC5)cc4C3=O)cccc12 [Example 381, 2-(3-(2-((1,5-dimethyl-1H-pyrazol-3-yl)amino)-5-methylpyrimidin-4-yl)-1H-indol-7-yl)-6-(1,2,3,6-tetrahydropyridin-4-yl)isoindolin-1-one]
Second: Cc1cnc(Nc2cc(C)n(C)n2)nc1-c1c[nH]c2c(N3Cc4cccc(C5=CCCCC5)c4C3=O)cccc12 [Example 384, 7-(cyclohex-1-en-1-yl)-2-(3-(2-((1,5-dimethyl-1H-pyrazol-3-yl)amino)-5-methylpyrimidin-4-yl)-1H-indol-7-yl)isoindolin-1-one]
The IC50 of the first is lower: less than 10 nM for the first, 100 to 1000 nM for the second. The first is the more potent here.

`Cc1cnc(Nc2cc(C)n(C)n2)nc1-c1c[nH]c2c(N3Cc4cccc(-c5ccccc5)c4C3=O)cccc12` [Example 382, 2-(3-(2-((1,5-dimethyl-1H-pyrazol-3-yl)amino)-5-methylpyrimidin-4-yl)-1H-indol-7-yl)-7-phenylisoindolin-1-one] and `Cc1cnc(Nc2cc(C)n(C)n2)nc1-c1c[nH]c2c(N3Cc4cccc(-c5cn[nH]c5)c4C3=O)cccc12` [Example 386, 2-(3-(2-((1,5-dimethyl-1H-pyrazol-3-yl)amino)-5-methylpyrimidin-4-yl)-1H-indol-7-yl)-7-(1H-pyrazol-4-yl)isoindolin-1-one] fall in the same range of IC50: 10 to 100 nM for the first, 10 to 100 nM for the second.

Work on `Cc1cnc(Nc2cc(C)n(C)n2)nc1-c1c[nH]c2c(N3Cc4cccc(C5=CCOCC5)c4C3=O)cccc12` [Example 385, 7-(3,6-dihydro-2H-pyran-4-yl)-2-(3-(2-((1,5-dimethyl-1H-pyrazol-3-yl)amino)-5-methylpyrimidin-4-yl)-1H-indol-7-yl)isoindolin-1-one] yielded an IC50 of 10 to 100 nM.
